Assay [1] concerns the target Intestinal-type alkaline phosphatase (Homo sapiens, UniProt P09923). As to the kind of experiment: Dose Response confirmation of uHTS hits from a small molecule inhibitors of human intestinal alkaline phosphatase via a luminescent assay. [Related pubchem assays (depositor defined):AID2544, AID2574]. It is filed as functional.
Another assay has as its target T1, Protein RecA (Mycobacterium tuberculosis, UniProt P9WHJ3).
T1 sequence (P9WHJ3 whole entry): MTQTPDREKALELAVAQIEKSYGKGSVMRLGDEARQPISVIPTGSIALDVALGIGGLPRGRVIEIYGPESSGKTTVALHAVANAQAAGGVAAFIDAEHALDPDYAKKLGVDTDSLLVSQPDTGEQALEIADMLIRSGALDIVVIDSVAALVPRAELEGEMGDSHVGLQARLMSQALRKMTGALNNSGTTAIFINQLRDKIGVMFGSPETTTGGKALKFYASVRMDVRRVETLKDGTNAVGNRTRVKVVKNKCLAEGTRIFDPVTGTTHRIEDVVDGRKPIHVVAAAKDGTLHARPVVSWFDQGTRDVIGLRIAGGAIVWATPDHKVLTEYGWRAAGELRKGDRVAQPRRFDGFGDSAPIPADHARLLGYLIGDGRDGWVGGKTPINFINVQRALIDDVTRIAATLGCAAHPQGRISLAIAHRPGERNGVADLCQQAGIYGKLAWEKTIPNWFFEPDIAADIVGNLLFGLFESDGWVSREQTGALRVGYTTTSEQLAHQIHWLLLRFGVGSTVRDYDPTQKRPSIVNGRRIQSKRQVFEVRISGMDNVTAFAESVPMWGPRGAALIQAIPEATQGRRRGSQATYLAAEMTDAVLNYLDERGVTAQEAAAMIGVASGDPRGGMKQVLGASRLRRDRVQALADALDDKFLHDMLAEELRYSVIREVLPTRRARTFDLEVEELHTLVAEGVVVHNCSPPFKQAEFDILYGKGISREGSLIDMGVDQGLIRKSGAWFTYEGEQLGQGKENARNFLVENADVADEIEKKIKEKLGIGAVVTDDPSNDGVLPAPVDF
As to the kind of experiment: Fluorescence Cell-Free Homogeneous Dose Retest to Identify Inhibitors of RecA-Intein Splicing Activity. [Related pubchem assays (depositor defined):AID2097, AID2223, AID489010, AID492950]. It is filed as functional.

Assay [2] deals with T2, Sentrin-specific protease 8 (Homo sapiens, UniProt Q96LD8).
T2 sequence (Q96LD8 whole entry): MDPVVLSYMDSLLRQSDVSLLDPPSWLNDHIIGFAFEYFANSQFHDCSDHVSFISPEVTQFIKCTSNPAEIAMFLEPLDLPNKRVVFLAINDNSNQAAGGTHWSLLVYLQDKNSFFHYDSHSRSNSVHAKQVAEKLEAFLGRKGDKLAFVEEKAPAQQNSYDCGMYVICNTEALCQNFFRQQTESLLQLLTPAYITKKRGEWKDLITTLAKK
It is filed as functional.

The target in assay [3] is T3, Histone-lysine N-methyltransferase NSD2 (Homo sapiens, UniProt O96028).
T3 sequence (O96028 whole entry): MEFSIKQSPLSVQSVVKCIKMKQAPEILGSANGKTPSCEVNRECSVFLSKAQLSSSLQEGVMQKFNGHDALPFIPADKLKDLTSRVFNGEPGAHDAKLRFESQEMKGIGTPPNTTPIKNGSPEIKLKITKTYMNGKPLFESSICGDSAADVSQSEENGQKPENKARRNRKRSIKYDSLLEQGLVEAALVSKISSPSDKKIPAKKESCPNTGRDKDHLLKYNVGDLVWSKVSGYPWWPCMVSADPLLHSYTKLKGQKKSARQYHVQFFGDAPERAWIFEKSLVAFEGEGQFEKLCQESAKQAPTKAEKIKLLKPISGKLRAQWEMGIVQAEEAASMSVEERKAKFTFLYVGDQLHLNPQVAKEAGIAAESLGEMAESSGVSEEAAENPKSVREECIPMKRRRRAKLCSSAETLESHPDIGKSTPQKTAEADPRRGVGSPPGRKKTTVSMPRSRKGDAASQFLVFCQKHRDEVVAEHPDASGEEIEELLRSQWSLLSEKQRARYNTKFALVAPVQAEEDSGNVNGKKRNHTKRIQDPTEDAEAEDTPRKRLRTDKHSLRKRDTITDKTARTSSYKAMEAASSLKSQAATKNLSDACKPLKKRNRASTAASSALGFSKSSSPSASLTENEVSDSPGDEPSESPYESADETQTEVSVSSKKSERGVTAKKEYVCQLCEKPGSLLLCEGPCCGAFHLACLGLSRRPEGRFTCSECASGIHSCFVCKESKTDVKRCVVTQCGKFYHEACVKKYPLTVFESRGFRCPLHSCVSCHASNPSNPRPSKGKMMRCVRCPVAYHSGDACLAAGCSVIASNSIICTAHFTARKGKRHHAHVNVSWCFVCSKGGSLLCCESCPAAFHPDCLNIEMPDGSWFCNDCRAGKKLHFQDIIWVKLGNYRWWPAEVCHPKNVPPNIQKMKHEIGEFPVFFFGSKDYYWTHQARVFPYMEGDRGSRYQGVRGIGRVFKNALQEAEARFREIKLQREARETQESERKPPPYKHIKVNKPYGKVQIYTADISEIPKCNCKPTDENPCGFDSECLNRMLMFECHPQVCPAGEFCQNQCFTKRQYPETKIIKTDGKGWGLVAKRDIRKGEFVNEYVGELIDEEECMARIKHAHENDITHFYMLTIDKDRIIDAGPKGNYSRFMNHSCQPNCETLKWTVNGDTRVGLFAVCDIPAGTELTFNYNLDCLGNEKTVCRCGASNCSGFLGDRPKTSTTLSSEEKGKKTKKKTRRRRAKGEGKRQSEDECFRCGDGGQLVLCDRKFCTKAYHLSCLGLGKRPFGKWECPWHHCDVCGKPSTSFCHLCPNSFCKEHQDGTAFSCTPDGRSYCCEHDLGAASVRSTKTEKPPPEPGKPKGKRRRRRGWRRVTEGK
It is filed as biochemical.

The target of assay [4] is T2, Sentrin-specific protease 8. It is filed as functional. This is another data set of the same source.
The target in a further assay is T4, Caspase-3 (Homo sapiens, UniProt P42574).
T4 sequence (P42574 whole entry): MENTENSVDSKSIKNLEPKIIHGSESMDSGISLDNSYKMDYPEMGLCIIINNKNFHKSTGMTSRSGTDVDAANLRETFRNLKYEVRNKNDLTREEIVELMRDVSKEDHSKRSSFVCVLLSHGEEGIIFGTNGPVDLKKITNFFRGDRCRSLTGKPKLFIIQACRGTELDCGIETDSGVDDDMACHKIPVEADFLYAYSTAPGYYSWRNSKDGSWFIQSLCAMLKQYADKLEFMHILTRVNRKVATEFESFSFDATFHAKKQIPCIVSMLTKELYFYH
As to the kind of experiment: Dose-response confirmation of uHTS inhibitor hits of Sentrin-Specific Protease 8 in a Caspase-3 Fluorescence assay. It is filed as functional.

Assay [5] is described as follows: viability loss in THP-1 monocytes – THP-1 cells, cytotoxicity control for Vif-APOBEC3G degradation inhibitor project, dose response (AID 1117359). It is filed as functional. Particulars: THP-1.

Calls of active or inactive are those of the source.

Chain of Intestinal-type alkaline phosphatase (P09923 whole entry): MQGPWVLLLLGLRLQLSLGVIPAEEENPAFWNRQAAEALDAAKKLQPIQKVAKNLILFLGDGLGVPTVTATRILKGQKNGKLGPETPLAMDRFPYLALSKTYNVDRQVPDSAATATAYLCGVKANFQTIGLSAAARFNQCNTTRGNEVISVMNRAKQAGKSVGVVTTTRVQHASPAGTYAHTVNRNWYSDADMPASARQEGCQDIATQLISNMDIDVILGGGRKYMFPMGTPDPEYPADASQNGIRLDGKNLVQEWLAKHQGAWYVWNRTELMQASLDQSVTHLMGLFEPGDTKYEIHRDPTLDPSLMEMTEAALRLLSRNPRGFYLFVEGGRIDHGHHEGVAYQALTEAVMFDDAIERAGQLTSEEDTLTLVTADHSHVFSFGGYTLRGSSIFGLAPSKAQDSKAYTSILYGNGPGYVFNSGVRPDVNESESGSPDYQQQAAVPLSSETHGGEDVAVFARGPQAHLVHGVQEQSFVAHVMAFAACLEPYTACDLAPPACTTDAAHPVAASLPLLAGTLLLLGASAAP

As for `Nc1c(N2CCCC2)cc(Cl)c2nonc12`, the IC50 in assay [1] is > 100 µM (inactive). On Protein RecA, the half-maximal effective concentration (EC50) is 1.65 µM (active).
Regarding `O=C(NNc1cc(N2CCOCC2)nc(N2CCOCC2)n1)c1ccc([N+](=O)[O-])cc1`, the results for the IC50 (in assay [2]; in assay [4]; on Caspase-3) were 2.86 µM (active), 3.2 µM (active) and 20.9 µM (active), respectively. Besides, the AC50 in assay [3] was 2.56 µM (active).
As for `Oc1ccc(/N=C/c2ccc(OCc3ccccc3)cc2)cc1`, the CC50 in assay [5] is > 40 µM (active). Also, the EC50 on Protein RecA was > 380 µM (inactive).

The values are drawn from ChEMBL document CHEMBL1201862, “PubChem BioAssay data set” (2004).
